From publication PMC5750217 (Nature Communications, 2018)
Changes are numbered by the printed parent chain.

How the values were obtained:
ASCT2 = molecular target: T1, ASCT2 (Homo sapiens, UniProt Q15758); assay: Two electrode voltage clamp, substrate-activated anion current in oocytes expressing ASCT2; type: cell-based
T1 sequence (Q15758 1-541): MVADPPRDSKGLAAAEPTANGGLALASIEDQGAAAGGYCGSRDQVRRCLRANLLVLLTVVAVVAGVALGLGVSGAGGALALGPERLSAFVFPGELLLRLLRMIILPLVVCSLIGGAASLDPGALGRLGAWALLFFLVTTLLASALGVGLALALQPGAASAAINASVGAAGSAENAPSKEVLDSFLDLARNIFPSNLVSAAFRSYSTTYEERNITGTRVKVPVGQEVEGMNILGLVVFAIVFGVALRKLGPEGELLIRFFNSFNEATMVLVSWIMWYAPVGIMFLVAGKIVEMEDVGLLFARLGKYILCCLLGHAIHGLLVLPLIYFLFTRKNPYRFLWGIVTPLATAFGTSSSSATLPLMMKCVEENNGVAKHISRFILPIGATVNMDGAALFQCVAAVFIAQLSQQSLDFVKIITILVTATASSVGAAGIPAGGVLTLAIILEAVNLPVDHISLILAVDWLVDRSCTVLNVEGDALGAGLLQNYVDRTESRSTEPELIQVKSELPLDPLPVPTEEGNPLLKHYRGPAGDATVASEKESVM
Description: All chemicals were obtained from Sigma unless otherwise stated. Stage V oocytes were harvested from female Xenopus laevis (frogs) which were obtained from Nasco (Fort Alkinson, USA). Frogs were anaesthetised with 6.5 mM tricaine neutralised with 7.14 mM sodium bicarbonate. After making an incision in the abdomen of the frog, ovarian sacs were removed and stored in OR-2 buffer (82.5 mM NaCl, 2 mM KCl, 1 mM MgCl2, 5 mM hemisodium HEPES, pH 7.5). This surgical procedure follows a protocol (#2016/970) approved by the University of Sydney Animal Ethics Committee under the Australian Code of Practice for the Care and Use of Animals for Scientific Purposes. […]
After 2–4 days of microinjection, current recordings were made using the two electrode voltage clamp technique with a Geneclamp 500 amplifier (Axon Instruments, Foster City, CA) interfaced with a MacLab 2e chart recorder (ADI Instruments, Sydney, Australia) using the chart software, and a Digidata 1322A (Axon Instruments) controlled by an IBM-compatible computer using the pClamp software (version 10, Molecular Devices, Union City, CA). […] Current–voltage relationships were calculated by subtracting steady state current measurements in the absence of substrate from corresponding current measurements in the presence of substrate. […]

[1] = molecular target: T2, A2-S481T/C482T (mutant ASCT2) (Homo sapiens, UniProt Q15758, C467T/S466T); assay: Radiolabelled uptake in oocytes expressing A2-S481T/C482T; type: cell-based; settings: 10 µM L-[3H]substrate, 10 min, room temperature
T2 construct: expressed in transfected cells; host or cells: Xenopus laevis oocytes (cRNA injection)
T2 sequence (Q15758 1-541 S466T/C467T): T1 sequence (Q15758 1-541) with S466T, C467T

N[C@@H](CCC(=O)Nc1ccc([N+](=O)[O-])cc1)C(=O)O [GPNA, glutamyl-p-nitroanilide]
GPNA % inhibition of L-serine activated current (ASCT2; GPNA co-applied with EC50 of L-serine, 300 µM GPNA / 1 mM GPNA (Table 1 footnote)): 90 ± 5% | IC50 (ASCT2; co-applied with EC50 of L-serine, read-out: IC50 for inhibition of L-serine activated current): 90 ± 20 µM

N[C@@H](CO)C(=O)O [L-serine]
Radiolabelled substrate uptake into oocytes (in words) [1]: displays uptake
